Experimental findings from patent publication US20240383908A1, “SYNTHESIS AND APPLICATION OF PHOSPHATASE DEGRADER” (HINOVA PHARMACEUTICALS INC., priority 2021, published 2024) are described below.

The subject of this test is KYSE 520. The experiment in a line: Inhibition of cell proliferation, KYSE 520 (CCK-8). The note with it: Homo sapiens, KYSE 520 cells, read-out: Inhibition activity on the proliferation of different cell lines KYSE 520 (IC50). It counts as cell-based. On the procedure: (1) MV-411 cells were cultured in the cell culture medium, and then well-growing cells were selected and inoculated in a 96-well plate at 80 μL/well, with 2×10^4 cells/well. The plate was incubated overnight in a 5% CO2 cell incubator at 37° C.
(2) 10 mM storage solution of each drug was prepared using dimethylsulfoxide (DMSO). The stock solution was diluted in a ratio of 1:3 with DMSO before use, and then the solution was serially diluted in a ratio of 1:3, to obtain 9 gradient concentrations. Each concentration was further diluted with the medium in a ratio of 1:200 (to ensure that the DMSO concentration in the culture system was 0.1%). Two wells were set for each concentration. 20 μL of each compound solution was added to the cell culture well (with a final concentration of 10 μM, 3.3 μM, 1.1 μM . . . ). The plate was gently shaken and mixed. Additionally, 3 negative control wells (only containing cells) and 3 blank control wells (only containing the medium) were included (6 wells were each added with 20 μL of DMSO diluted with the medium in a ratio of 1:200).
(1) After 5 days of cultivation, 10 μL of CCK-8 was added to each well, and then the plate was further cultured for 3 h at 37° C. in a 5% CO2 cell incubator.
(2) The absorbance (OD value) was measured at 450 nm with a multifunctional microplate reader. (3) The data were analyzed using the Dose-response-inhibition equation in GraphPad Prism8 software to obtain the IC50 value.
Using a similar method, the IC50 value (nM) for the inhibitory activity of the compound according to the present invention against different cell lines was obtained, and the results are shown in Table 3 (++++: IC50>5 μM; +++: 1 μM<IC50<5 μM; ++: IC50<1 μM).

Take `Cc1ncsc1-c1ccc([C@H](C)NC(=O)[C@@H]2C[C@@H](O)CN2C(=O)[C@@H](NC(=O)CCCCCCCCN2CCN(C(=O)CCC(=O)Nc3cccc(Sc4ncc(N5CCC(C)(N)CC5)nc4N)c3Cl)CC2)C(C)(C)C)cc1` [Compound 999]: the IC50 is 1 to 5 µM.
